Data on 87 molecules can be found in a melting point compilation (Tetko et al.; mined from patent text by program, amines drawn as free bases though some values may be those of a salt).

Some results are limits rather than exact numbers.

A word on the melting point: it is the temperature, or range, at which the solid turns liquid.

As to `Cc1cccc(-c2[nH]c(C(C)C)nc2-c2ccc(F)c(-c3ccc(OCCN4CCCC4=O)cc3)c2)n1`, the melting point is 95 °C.

In the case of `O=C(C=Cc1cccc(Cl)c1Cl)c1ccc(OC2CCCCO2)cc1` (configuration not stated), the melting point was 116 to 118 °C.

For `CCOC(=O)c1ccc(-c2c(Cl)c(CN3C(=O)CCC3=O)nc3sc4c(c23)CCN(C(=O)OCc2ccccc2)C4)cc1`, the melting point lay within 198 to 199 °C. The value for `Cc1cc(-c2nnc3c4ccccc4c(OCc4nncn4C)nn23)no1` was 261 to 263 °C; that for `O=CN(O)C(CCCO)CS(=O)(=O)c1ccc(-c2ccc(Cl)cc2)cc1` (configuration not stated) was 160 °C; that for `CCCc1cc(C(O)=S)cc(N)c1Oc1ccccc1` was 136 to 138 °C.

In turn, `CCCCN(CCCC)Cc1nc(-c2ncn3c2CN(C)C(=O)c2c(Cl)cccc2-3)no1` had a melting point of 140 to 142 °C.

Take `Cc1cc2c(=O)[nH][nH]c(=O)c2n1Cc1ccccc1`: the melting point fell in the range of 322 to 324 °C. The molecule `CCCCCS(=O)(=O)NC(=O)CCCc1ccc(OCCOC)cc1Oc1ncc(C(F)(F)F)cc1Cl` showed a melting point of 96 to 97 °C.

The molecule `CN(O)C(=O)c1ccc(CCCCc2ccncc2)cc1` displayed a melting point of 148 to 150 °C. `COC(=O)c1ccc2cc(C(O)c3cccnc3)ccc2c1` (configuration not stated): the melting point is 130 to 135 °C. `O=C(OCc1ccccc1)c1ccc(OC(=O)c2ccc(C(=O)Oc3ccc(C(=O)OCc4ccccc4)cc3)cc2)cc1` displayed a melting point of 186 to 187 °C. On to `Cc1nnc(-c2cnc3occ(-c4ccccc4Cl)c3c2)o1`, for which the melting point lay within 141 to 142 °C.

As for `CNC1=Nc2ccc(C3=NNC(=O)CC3)cc2C1(C)C`, the melting point was 320 to 324 °C. For `CCN(CC)Cc1cc(NC(C)=O)c2c(c1O)CCCC2`, the melting point was 157 to 159 °C.

Molecule `Cc1c(C=NO)c2cc(Cl)ccc2n1-c1ccc(O)cc1` returned a melting point of 212 to 213 °C. Take `Cc1c(-c2ccccc2)n[nH]c1-c1ccccc1`: the melting point fell in the range of 225 to 226 °C. `Nc1nc2ccccc2c2c1ncn2CCOCCCc1ncccn1` registered a melting point of 126 to 127 °C. For `CCCCCCCCNCC(O)C(O)C(O)C(O)CO` (configuration not stated), the melting point lay within 114 to 116 °C. The molecule `CC(=O)Nc1ccc(-c2c[nH]c(=O)cn2)cc1` had a melting point of 268 to 275 °C. `O=C(/C=C/c1ccc(C(F)(F)F)cc1Br)Nc1ccc2[nH]ccc2c1` gave a melting point of 205 to 207 °C. The value for `Cc1c(NCCN2C(=O)c3ccccc3C2=O)c(=O)n(C)c(=O)n1C` was 178 to 180 °C; that for `Cc1nc2n(c1CC#N)CCCC2OCc1ccccc1` (configuration not stated) was 132 to 134 °C.

Regarding `CNC(=O)N(O)Cc1ccc(OCCc2nc(-c3ccccc3)oc2C)cc1`, the melting point was in the range of 139 to 144 °C.

Turning to `CC1c2cc(O)ccc2-c2c1cc1cc(O)ccc1c2Cl` (configuration not stated), the melting point fell in the range of 215 to 220 °C.

Molecule `CCCCC[C@H]1CC[C@H](/C=C/COc2ccc(C(=O)O)cc2)CC1` showed a melting point of 214 to 215 °C.

`CN(C)CCn1c(=O)sc2ccc(Cl)cc21` yielded a melting point of 62.5 to 65.5 °C.

`N#Cc1ccccc1NC(=O)C(=O)N1CCC(Cc2ccc(F)cc2)CC1`: the melting point lay within 101 to 103 °C. In turn, `CC(C)(C)[Si](C)(C)Oc1ccc2c(c1)oc(=O)c1c3ccc(O[Si](C)(C)C(C)(C)C)cc3oc21` gave a melting point of 118 to 119 °C. Take `CCC(CC)Nc1cc(C)nc(Oc2c(C)cc(C)cc2C)c1C(N)=O`: the melting point lay within 85 to 88 °C. Turning to `CCOc1cc2c(Nc3cc(OC)c(Cl)cc3Cl)c(C#N)cnc2cc1OCCCN1CCN(CC)CC1`, the melting point lay within 127 to 130 °C.

For `CSc1nn2c(Cl)cc(Cl)nc2c1S(=O)(=O)c1ccccc1`, the melting point was in the range of 193 to 197 °C. As for `COC(=O)C1=Cc2cc(-c3ccc(C(F)(F)F)cc3)ccc2S(=O)(=O)CC1`, the figure is 168 to 170 °C; as for `CCCn1c(-c2c(Cl)cccc2Cl)nc(-c2ccncc2)c1-c1ccc(Cl)cc1`, 220 to 222 °C; as for `O=C1NC(=O)C(Cc2ccc(OCCON=Cc3ccc(-c4ccccc4)nc3)cc2)S1` (configuration not stated), 102 to 104 °C. For the molecule `COc1cc2ncnc(N3CCC(CN4C=CC(C)=NS4(=O)=O)CC3)c2cc1OC`, the melting point fell in the range of 203 to 207 °C. The molecule `O=C(c1ccccc1)c1cnn2c(-c3cccc(NC(=O)C4CC4)c3)ccnc12` had a melting point of 210 to 212 °C. In turn, `COc1ccc(P(c2cc(C)cc(C(C)(C)C)c2O)c2cc(C)cc(C(C)(C)C)c2O)cc1` registered a melting point of 122 to 124 °C. On to `N=C(N)N1CCC2c3ccccc3CN21` (configuration not stated), for which the melting point lay within 233 to 234 °C. Take `O=C(NC(=NCCCCc1cccnc1)NCCCc1c[nH]cn1)c1ccccc1`: the melting point was 119 to 120 °C. The molecule `CC(Cl)C(=O)c1ccc2c(c1)CC(=O)N2` (configuration not stated) had a melting point of 157 to 158 °C.

Regarding `CC(C)(C)OC(=O)CNC1Cc2ccccc2C1`, the melting point was 54 to 55 °C. Regarding `COc1c(OCCC(NC(=O)OCc2ccccc2)C(=O)O)cc2c(c1OC)C1=C(CCC1)C(=NNC1=CCNCN1)CC2` (racemic), the melting point was determined as 172 °C.

In turn, `N#CC=C1CC2(CCCC2)c2ccccc21` gave a melting point of 82 °C. As for `CCOc1cc(OCCCc2cn(-c3ccc(C(F)(F)F)cn3)nc2O)ccc1CCC(=O)OC`, the figure is 147 to 148 °C; as for `Cc1nc(Cl)c2c(n1)N(C)C(=O)CO2`, 142 to 143 °C; as for `CCOC(=O)C(CNC(=O)c1ccccc1)C(=O)C(F)(F)F` (configuration not stated), 85 to 88 °C. As to `Cc1cccc(-c2ccc(O)cc2C=O)c1`, the melting point was in the range of 148 to 150 °C.

For `CCCCCCOc1ccc2[nH]c(SC(C)(C(=O)O)c3ccccc3)cc2c1` (configuration not stated), the melting point lay within 100 to 102 °C. Turning to `CNc1nc(-c2cccc(NC(=O)c3ccccc3Cl)c2)c2cc(OC)c(OC)cc2n1`, the melting point lay within 197 to 199 °C.

As for `O=C(c1sc2ccc(C(F)(F)F)cc2c1O)N(C=Cc1ccccc1)C=Cc1ccccc1`, the melting point lay in the range of 165 to 167 °C. For the molecule `O=Cn1cc(Cl)c(-c2cccc(Cl)c2[N+](=O)[O-])c1`, the melting point worked out at 138 °C. `CN1C(=O)CCC(C)(C)c2cc(Nc3ncc(Cl)c(N[C@@H]4CCCC[C@H]4NS(C)(=O)=O)n3)ccc21` yielded a melting point of 165 °C. In turn, `COc1ccc(N2CCN(c3c(C)c(C)c4c(c3C)C(OCc3ccccc3)C(C)(C)O4)CC2)cc1` (configuration not stated) displayed a melting point of 98 to 99 °C.

As for `O=S(=O)(O)c1ccc(N(Cc2ccc(F)cc2)Cc2ccc(Cl)cc2)cc1`, the melting point is over 250 °C. Turning to `Cc1ccc(C(=S)C=CC(=O)Nc2c(C)cccc2C)cc1`, the melting point lay in the range of 216 to 217 °C. As for `O=C(O)c1ccccc1C(=O)c1ccccc1Cl`, the figure is 112 to 116 °C; as for `COc1ccc(N2CCN(c3c(C)c(C)c4c(c3C)C(c3cccc(C)c3)C(C)(C)O4)CC2)cc1` (configuration not stated), 159 to 161 °C.

`O=C(Nc1ccc(Br)cn1)C(F)(F)F` yielded a melting point of 70 to 72 °C. `COC(=O)c1c(C(=O)O)n(-c2ccc(OC(C)C)cc2)c2ccc(Oc3ccc(C(F)(F)F)cc3)cc12` had a melting point of 191 °C. Molecule `Cc1ccc(-n2nc(CC(=O)N(C)C)c3c4ccc(Cl)cc4n(C)c3c2=O)cn1` registered a melting point of 253 to 255 °C. Molecule `CNC(=O)C1C(C)(C)C1(C)C` had a melting point of 98 °C. In the case of `Cc1cccc(Nc2cc(Nc3ccc(OCC(N)=O)cc3)ncn2)c1`, the melting point is 212 to 215 °C. `COc1cc(CCN2CCN(c3nsc4ccccc34)CC2)c(NC(=O)C=C(C)C)cc1OC` returned a melting point of 58 °C. In the case of `CCc1c(CN(C)S(=O)(=O)c2cccc(Cl)c2)nn(-c2ccc(Cl)cc2Cl)c1-c1ccc(Br)cc1`, the melting point was 78 °C. `CC(C)(C(=O)NC1CCCCC1)c1ccc(S(=O)(=O)/C=C/C#N)cc1` returned a melting point of 191 to 193 °C. With `CC[C@H](C)[C@H](OCc1ccccc1)[C@H]1[C@H]([N+](=O)[O-])[C@H](C2CC2)N[C@@H]1C(=O)O`, the melting point was 159 to 161 °C. `CCc1cn(C(C)(C)C(=O)N(C)C)nc1-c1ccccc1` came in with a melting point of 108 to 111 °C.

`CCC1CC2C3CCC4=CC(=O)CCC4C3CCC2(C)C1OC(=O)CCl` (configuration not stated) had a melting point of 135 to 136 °C. On to `CNC(=C[N+](=O)[O-])NOCCCc1csc(NC(=N)N)n1`, for which the melting point was in the range of 144 to 146 °C. Turning to `O=c1c2ccccc2n(CCCOC2CCCCO2)c2ccccc12` (configuration not stated), the melting point was 140 to 142 °C. Molecule `CC1CCCN1CCCN1CCN(CCCN2CCC(F)(F)C2)C1=C(C#N)C#N` (configuration not stated) came in with a melting point of 99 to 102 °C. Molecule `O=[N+]([O-])c1cc(S(=O)(=O)Oc2ccccc2)ccc1Cl` registered a melting point of 71 °C. Regarding `CCCCC1(CC)CS(=O)(=O)c2ccccc2N(c2ccccc2)C1=O` (configuration not stated), the melting point stood at 57.6 °C. As for `CN1C(=O)C(Br)(Br)CC1c1cncc(Br)c1` (configuration not stated), the figure is 139 to 140 °C; as for `CCCc1c(OCCCSc2ccc(C(=O)CCC(=O)O)cc2)ccc(C(C)=O)c1OC(C)=O`, 121 to 123 °C; as for `COc1ccc(-n2c(=O)cc(C(F)(F)F)n(C)c2=O)c2c1C(=O)C(C)(C)O2`, 222 to 224 °C. With `COc1ccc(-c2c(Cl)ncn2-c2ccc(S(C)(=O)=O)cc2)cc1`, the melting point stood at 205 °C. Turning to `COC1=CC(=O)CN(C)C1`, the melting point was 71 to 72 °C. As for `CC(O)c1nnc(-c2ccc3occ(-c4cccc(OC(F)(F)F)c4)c3c2)o1` (configuration not stated), the figure is 131 to 132 °C.

Take `CC(=O)OC1C2C=CC1C1N=NC21` (configuration not stated): the melting point is 58 °C. The molecule `CCN(CC)CCOc1ccc(Nc2ncc3c(n2)N(C)C(=O)N(Cc2ccc(OC)cc2)C3)cc1` came in with a melting point of 112 °C. `N#Cc1cc(Cn2cncn2)cc(-c2ccc(F)cc2)c1` showed a melting point of 134 to 135 °C. With `COc1cc(C(=O)N(C(C)C)C2CCCCC2)ccc1Cn1c(C)nc2ncccc21`, the melting point was 201 to 203 °C. The molecule `Nc1nc(-c2ccc(CNC(=O)c3cccnc3)s2)cs1` came in with a melting point of 240 to 241 °C.

Molecule `O=C(Nc1cc(-c2c(-c3ccc(F)cc3)nc3cccnn23)ccn1)c1ccc(Cl)nc1` returned a melting point of 247 to 248 °C. As to `O=Cc1csc(N2CCCCC2)n1`, the melting point was in the range of 68 to 69 °C.
